Assay results reported in patent publication US20220081412A1, “QUINOLINYL-PYRAZINE-CARBOXAMIDE COMPOUNDS AND USES THEREOF” (The Regents of the University of Michigan, priority 2018, published 2022).

Tested on: NCI60 cell lines
Assay: NCI60 cell line panel
Type: cell-based, human
Protocol: The Developmental Therapeutics Program (DTP) of NCI has evaluated more than 100,000 pure compounds and more than 34,000 crude extracts against the panel of human tumor cell lines. The resultant data are analyzed using a program called COMPARE, that rank the entire database of tested compounds in the order of the similarity of the responses. […] Thus, the NCI60 databases is highly useful to the cancer research community. Further experiments were conducted that tested some of the active compounds in a panel of NCI60 cell line to relate our compounds with some known inhibitors to have an idea of possible mechanism of action.
In order to understand the selectivity of these compounds in different cancer types, some of them were tested against a panel of 60 cell lines (Table XXXIX).

## O=C(Nc1cc(F)cc2cccnc12)c1cnc(N2CCNCC2)cn1 [J44, N-(6-fluoroquinolin-8-yl)-5-(piperazin-1-yl)pyrazine-2-carboxamide]
Breast Cancer, BT-549
  GIPRCNT: % Growth inhibition: 82.22%
Breast Cancer, HS 578T
  GIPRCNT: % Growth inhibition: 71.77%
Breast Cancer, MCF7
  GIPRCNT: % Growth inhibition: 75.22%
Breast Cancer, MDA-MB-231/ATCC
  GIPRCNT: % Growth inhibition: 10.16%
Breast Cancer, MDA-MB-468
  GIPRCNT: % Growth inhibition: −5.124%
Breast Cancer, T-47D
  GIPRCNT: % Growth inhibition: 18.05%
CNS Cancer, SF-268
  GIPRCNT: % Growth inhibition: 77.45%
CNS Cancer, SF-295
  GIPRCNT: % Growth inhibition: 89.3%
CNS Cancer, SF-539
  GIPRCNT: % Growth inhibition: 85.5%
CNS Cancer, SNB-19
  GIPRCNT: % Growth inhibition: 87.74%
CNS Cancer, SNB-75
  GIPRCNT: % Growth inhibition: 82.71%
CNS Cancer, U251
  GIPRCNT: % Growth inhibition: 63.6%
Colon Cancer, COLO 205
  GIPRCNT: % Growth inhibition: 13.9%
Colon Cancer, HCC-2998
  GIPRCNT: % Growth inhibition: 85.58%
Colon Cancer, HCT-15
  GIPRCNT: % Growth inhibition: 40.52%
Colon Cancer, HCT-116
  GIPRCNT: % Growth inhibition: 11%
Colon Cancer, HT29
  GIPRCNT: % Growth inhibition: 36.78%
Colon Cancer, KM12
  GIPRCNT: % Growth inhibition: 81.24%
Colon Cancer, SW-620
  GIPRCNT: % Growth inhibition: 40.94%
Leukemia, CCRF-CEM
  GIPRCNT: % Growth inhibition: 26.31%
Leukemia, HL-60(TB)
  GIPRCNT: % Growth inhibition: 77.07%
Leukemia, K-562
  GIPRCNT: % Growth inhibition: 19.84%
Leukemia, MOLT-4
  GIPRCNT: % Growth inhibition: 24.48%
Leukemia, RPMI-8226
  GIPRCNT: % Growth inhibition: 93.13%
Leukemia, SR
  GIPRCNT: % Growth inhibition: 29.46%
Melanoma, LOX IMVI
  GIPRCNT: % Growth inhibition: 65.76%
Melanoma, M14
  GIPRCNT: % Growth inhibition: 86.06%
Melanoma, MALME-3M
  GIPRCNT: % Growth inhibition: 59.5595%
Melanoma, MDA-MB-435
  GIPRCNT: % Growth inhibition: 77.28%
Melanoma, SK-MEL-2
  GIPRCNT: % Growth inhibition: 104.1313%
Melanoma, SK-MEL-5
  GIPRCNT: % Growth inhibition: 97.38%
Melanoma, UACC-62
  GIPRCNT: % Growth inhibition: 88.004%
Melanoma, UACC-257
  GIPRCNT: % Growth inhibition: 91.12%
Non-Small Cell Lung Cancer, A549/ATCC
  GIPRCNT: % Growth inhibition: 88.1%
Non-Small Cell Lung Cancer, EKVX
  GIPRCNT: % Growth inhibition: 82.71%
Non-Small Cell Lung Cancer, HOP-62
  GIPRCNT: % Growth inhibition: 85.24%
Non-Small Cell Lung Cancer, HOP-92
  GIPRCNT: % Growth inhibition: 49.09%
Non-Small Cell Lung Cancer, NCI-H23
  GIPRCNT: % Growth inhibition: 83.43%
Non-Small Cell Lung Cancer, NCI-H226
  GIPRCNT: % Growth inhibition: 100.3613%
Non-Small Cell Lung Cancer, NCI-H322M
  GIPRCNT: % Growth inhibition: 69.29%
Non-Small Cell Lung Cancer, NCI-H460
  GIPRCNT: % Growth inhibition: 80.62%
Non-Small Cell Lung Cancer, NCI-H522
  GIPRCNT: % Growth inhibition: 54.48%
Ovarian Cancer, IGROV1
  GIPRCNT: % Growth inhibition: 100.6006%
Ovarian Cancer, NCI/ADR-RES
  GIPRCNT: % Growth inhibition: 72.41%
Ovarian Cancer, OVCAR-3
  GIPRCNT: % Growth inhibition: 43.52%
Ovarian Cancer, OVCAR-4
  GIPRCNT: % Growth inhibition: 6.04%
Ovarian Cancer, OVCAR-5
  GIPRCNT: % Growth inhibition: 11.16%
Ovarian Cancer, OVCAR-8
  GIPRCNT: % Growth inhibition: 83.3637%
Ovarian Cancer, SK-OV-3
  GIPRCNT: % Growth inhibition: 87.6273%
Prostate Cancer, DU-145
  GIPRCNT: % Growth inhibition: 63.01%
Prostate Cancer, PC-3
  GIPRCNT: % Growth inhibition: 29.0295%
Renal Cancer, 786-0
  GIPRCNT: % Growth inhibition: 100.1067%
Renal Cancer, A498
  GIPRCNT: % Growth inhibition: 89.1%
Renal Cancer, ACHN
  GIPRCNT: % Growth inhibition: 88.67%
Renal Cancer, CAKI-1
  GIPRCNT: % Growth inhibition: 28.3672%
Renal Cancer, RXF 393
  GIPRCNT: % Growth inhibition: 52.45%
Renal Cancer, SN12C
  GIPRCNT: % Growth inhibition: 54.07%
Renal Cancer, TK-10
  GIPRCNT: % Growth inhibition: 74.98%
Renal Cancer, UO-31
  GIPRCNT: % Growth inhibition: 66.57%
